Seven compounds from ChEMBL document CHEMBL1134331, “New dermatological agents for the treatment of psoriasis” (J Med Chem, 2001) can be followed below.

For assay [1], the species on record is Homo sapiens. Briefly: Inhibition of growth of human keratinocytes. The assay is classed as functional.
Assay [2] in a line: Competitive inhibition of ATP binding.
For assay [3], the target named is T1, Vitamin D3 receptor (Homo sapiens, UniProt P11473).
T1 sequence (P11473 whole entry): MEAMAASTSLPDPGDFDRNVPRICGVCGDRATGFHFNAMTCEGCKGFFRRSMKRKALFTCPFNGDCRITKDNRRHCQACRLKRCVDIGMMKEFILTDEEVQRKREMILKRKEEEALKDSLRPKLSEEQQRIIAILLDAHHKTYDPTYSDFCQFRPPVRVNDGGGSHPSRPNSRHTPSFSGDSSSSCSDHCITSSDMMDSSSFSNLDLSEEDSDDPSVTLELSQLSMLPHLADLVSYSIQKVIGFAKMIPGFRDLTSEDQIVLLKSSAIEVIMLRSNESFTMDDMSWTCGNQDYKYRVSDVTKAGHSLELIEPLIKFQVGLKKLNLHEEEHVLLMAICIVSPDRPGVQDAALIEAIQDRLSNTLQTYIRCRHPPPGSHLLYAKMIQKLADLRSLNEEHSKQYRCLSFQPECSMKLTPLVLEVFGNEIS
In words: Binding affinity to VDR receptor.

In assay [4] the target is Inosine-5'-monophosphate dehydrogenase (IMPDH) (Homo sapiens, UniProt P20839+P12268). In words: Inhibition of […] dehydrogenase (IMPDH); range 7-8 nM. The assay is classed as protein assay.
A short description of assay [5]: Inhibition of growth of T-cell lymphoblastoma; range 1-10 uM. Type of assay: functional.

pIC50, pKd: −log10 of the molar value.

`C=C1/C(=C\C=C2/CCC[C@]3(C)[C@@H]([C@H](C)/C=C/[C@@H](O)C4CC4)CC[C@@H]23)C[C@@H](O)C[C@@H]1O` [CALCIPOTRIENE] showed a pIC50 in assay [1] of 7.49.

`COc1cc2ncnc(Nc3cccc(Br)c3)c2cc1OC` had a pIC50 in assay [2] of 10.60.

In the case of `C=C1/C(=C\C=C2/CCC[C@]3(C)C([C@@H](C)CSc4ccc(C(C)(C)O)cc4)CC[C@@H]23)C[C@@H](O)C[C@@H]1O` (some centres undefined), the pKd in assay [3] was 10.05. In assay [1], this compound gave a pIC50 of 9.55.

On to `COc1cc(NC(=O)Nc2cccc(CNC(=O)O[C@H]3CCOC3)c2)ccc1-c1cnco1` [MERIMEPODIB], for which the IC50 in assay [4] was 7 nM.

In assay [3], `C=C1/C(=C\C=C2/CCC[C@]3(C)C([C@@H](C)COc4ccc(C(C)(C)O)cc4)CC[C@@H]23)C[C@@H](O)C[C@@H]1O` (some centres undefined) gave a pKd of 10.14. The compound further gave a pIC50 in assay [1] of 9.96.

For the compound `C/C(O)=C(\C#N)C(=O)Nc1ccc(C(F)(F)F)cc1`, the Concentration in assay [5] is 1 µM.

Regarding `COc1c(C)c2c(c(N)c1C/C=C1\CCCC1[C@H](C)C(=O)O)C(=O)OC2` (some centres undefined), the IC50 in assay [4] amounted to 7 nM.

The pIC50 is the negative decadic logarithm of the IC50, by convention in mol/L. High values mean a small IC50, low ones a large IC50. As a reminder, the pKd is −log10 of the Kd, conventionally taken in molar units. A low value points to a large Kd. Broadly, the IC50 is the concentration at which inhibition is half-maximal. Read a high IC50 as weaker potency.
